Test [1] concerns Interleukin-8 (IL-8) release, primary human lung epithelial cells. Briefly: IL-8 release from primary human lung epithelial cells stimulated with cigarette smoke extract. It counts as cell-based. As to conditions: primary human lung epithelial cells exposed to CSE for 7 days, vs untreated CSE-stimulated cells. The source says: As an example of the cell protective mechanisms induced by PB201 treatment, release of the proinflammatory cytokine Interleukin-8 (IL-8) was attenuated in primary human lung epithelial cells treated with PB201 compared to untreated cells when both were stimulated with cigarette smoke extract (FIG. 9).

Test [2] has as its system radiation-induced oral mucositis (cheek pouch ulceration). The experiment in a line: Radiation-induced oral mucositis in hamster cheek pouch. It counts as in vivo, Syrian Golden Hamsters. The note with it: 40 Gy day 0; topical cheek pouch 1 to 10 μg PB201 3×/day days 0 to 28; scored days 6 to 28. As to the method:
In this example, a single dose of radiation (40 Gy) was given on day 0 to the isolated cheek pouch and PB201 treatment was given by topical cheek pouch administration of 1 to 10 μg PB201 given three times daily from days 0 to 28 as 0.2 mL of 5 μg/mL given 3×/day or 0.2 mL of 50 μg/mL given 3×/day, and oral mucositis was determined as cheek pouch ulceration, scored every 2 days from days 6 to 28. Mucositis was scored visually by comparison to a validated photographic scale, ranging from 0 (normal) to 5 (severe ulceration). In descriptive terms, this scale is defined as follows.
A score of 1-2 is considered to represent a mild stage of the disease, whereas a score of 3-5 is considered to indicate moderate to severe mucositis.

The test system of another test is oral mucositis. The experiment in a line: Oral mucositis in a mammal receiving radiation treatment or chemotherapy, topical oral administration. As to conditions: topical within oral cavity daily, vs untreated or placebo. It is filed as in vivo. As to the method: A formulation of PB201 was administered topically within the oral cavity daily to a mammal receiving radiation treatment or chemotherapy that can cause oral mucositis as a side effect. PB201 administration decreased the frequency and/or severity of the oral mucositis as compared to untreated or placebo treated subjects.

For test [3], the system named is Nrf2 (ARE-driven luciferase gene expression). The experiment in a line: ARE-driven luciferase promoter-reporter assay in stably transfected human cancer cell lines. It is filed as cell-based. As to the method: As an example of the properties of PB201, cell lines were cultured which had been stably transfected with constructs of the luciferase gene. This luciferase gene was driven in its promoter region by copies of the ARE Nrf2-binding sequence, known as promoter-reporter constructs (Simmons, Fan, Yeoman, Wakefield and Ramabhadran, NRF2 Oxidative Stress Induced by Heavy Metals is Cell Type Dependent, Curr Chem Genomics 5, 1-12 (2011); Shukla, Huang, Simmons, Tice, Witt, Vanleer, Ramabhadran, Austin and Xia, Profiling environmental chemicals for activity in the antioxidant response element signaling pathway using a high throughput screening approach, Environ Health Perspect 120, 1150-1156 (2012)).
Briefly, the stably transfected cells of types HepG2 (human liver), AREc32 (human breast), MCF7 (human breast), A549 (human lung), 293T (human kidney), and A172 (human brain) were seeded at low density in 24-well plates and incubated at 37° C. with 10% CO2. After 24 h various concentrations of combinations of agents were added to the cells. After an additional 18 h of incubation, the cells were lysed in their wells with 100 μl of a lysing buffer that contains 3.5 mM sodium pyrophosphate to stabilize light output by luciferase. A 20 μl aliquot of cell lysate was added to a small test tube, placed in a BD Monolight 3010 luminometer for background luminescence, and then 50 μl of 1 mM luciferin was injected into the tube. Relative Light Units integrated for 10 sec were measured for each sample.

Test [4] concerns Nrf2 (HepG2-ARE promoter/reporter cells). Briefly: HepG2-ARE promoter/reporter cells, Nrf2 activation (chemiluminescent signal, RLU). It counts as cell-based, human. As to conditions: for Nrf2 activation level: 4.2 ug/mL, unstimulated baseline 7182 RLU; for Nrf2 activation (chemiluminescent signal, RLU): HepG2-ARE cells. As to the method: In this example, approaches were used to increase the aqueous distribution of the otherwise relatively insoluble 1,3-diphenyl-1,3-propanedione (DBM) by adding 2-hydroxypropyl beta-cyclodextrin (HPBCD) at a molar ratio (DBM:HPBCD) of 1:3. […] To verify its presence in the aqueous solutions, the samples were tested for activity of PB201 using HepG2-ARE promoter/reporter cells, which are responsive to PB201 and other Nrf2-activators by promoting the expression of luciferase.
Furthermore, the Nrf2 activation by the 1,3-diphenyl-1,3-propanedione, with or without solubility enhancing agents such as HPBCD, is temporary, not permanent, and can be repeated; for example the Nrf2 activation by 4.2 ug/mL 1,3-diphenyl-1,3-propanedione decreases from its level at 17 hours (72,949 RLU) to 24 hours (47,121 RLU) after stimulation, and is nearly back to its baseline, unstimulated levels (7182 RLU) by 48 hours (11,659 RLU). Similarly, other types of agents can be utilized to increase aqueous levels of 1,3-diphenyl-1,3-propanedione including, but not limited to, surfactants, liposomes, amphiphiles, emulsifiers, and complexing agents to make solutions or suspensions.

The structures appear in SMILES notation. Entries after “also recorded” stand apart in the source; their conditions may differ.

`O=C(CC(=O)c1ccccc1)c1ccccc1` [PB201, 1,3-diphenyl-1,3-propanedione]: the IL-8 release entry in test [1] is “significantly decreased; also recorded: attenuated”. Moreover, in test [2], the “Protection against oral mucositis (cheek pouch ulceration score 0-5)” value was “protected against the oral mucositis”. The “Frequency and/or severity of oral mucositis” value with oral mucositis is on record as “decreased”. For the same molecule, the “Induction of Nrf2-dependent luciferase gene expression” value in test [3] (A172 human brain cell line, other experiments (FIG. 5)) is “lower, but measurable, induction”. For the same molecule, the “Nrf2 gene activation and luciferase expression” value is “no activation” in test [3] (brain cells (A172), this experiment (FIGS. 2-4)); “exhibited Nrf2 gene activation and luciferase expression” in test [3] (breast cells (AREc32, MCF7), 18 h incubation); “exhibited Nrf2 gene activation and luciferase expression” in test [3] (kidney cells (293T), 18 h incubation); “exhibited Nrf2 gene activation and luciferase expression” in test [3] (liver cells (HepG2), 18 h incubation); “lesser activation; also recorded: low or negative response” in test [3] (lung cells (A549; constitutive Nrf2 activation due to mutation)). Also, the Nrf2 activation level was 72,949 RLU in test [4] (17 hours after stimulation) and 11,659 RLU in test [4] (48 hours after stimulation). Moreover, the “Nrf2 activation (chemiluminescent signal, RLU)” value in test [4] (PB201 in HPBCD/PBS) was “activated”; in test [4] (PB201 in PBS alone), “not by PB201 in PBS alone”.

The record behind these values is patent US20240000724A1, “Compositions and Methods for Treatment or Prevention of Oral Mucositis” (PATHWAYS BIOSCIENCE, LLC, priority 2015, published 2024).
